In PubChem BioAssay AID977629 (Broad Institute, 2014):
Records with an inconclusive call do not appear. The source made the active and inactive calls.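 The calls were made as follows: active = drop in red signal of normal-ribosome bacteria at least twice that in human-like-ribosome bacteria, growth inhibited under 30%; inactive = the rest, inconclusive results apart.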

What was measured:
[1] = growth inhibition of wild-type RFP versus h24-humanized GFP E. coli, dose response, h24 mutant GFP vs wild-type RFP, cherry-pick (AID 977629); conditions: E. coli WT-RFP / h24-humanized GFP mixed culture, 24 h; at 50 µM (top of the series)
[2] = system: E. coli WT-RFP / h24-humanized GFP mixed culture, 24 h; test: as above
[3] = measured here: h24 humanized mutant GFP signal
[4] = measured here: total growth OD600

SMILES: Cc1ccc(C)c(NC(=O)CSc2nc3nc(-c4cccs4)cc(C(F)(F)F)c3c(=O)[nH]2)c1
- activity change, negative = inhibition [1]: 52.6 (inactive)
- AC50 [2, 3]: 31.6 µM
- AC50 [2, 4]: 20.1 µM

SMILES: COC(=O)c1c(NC(=O)CCC(=O)O)sc(Cc2ccccc2)c1C
- AC50 [2]: > 100 µM (inactive)
- AC50 [2, 4]: 30 µM

SMILES: Cc1noc(C)c1NC(=O)Nc1ccc2c(c1)C(=O)N([C@H](C)CO)C[C@@H](C)[C@@H](CN(C)C(=O)Nc1ccc3c(c1)OCO3)OCCCC[C@@H](C)O2
- activity change, negative = inhibition [1]: 86.8 (inactive)

SMILES: CCN(CC)CCn1c2ccccc2c2nc3ccc([N+](=O)[O-])cc3cc21
- activity change, negative = inhibition [1]: 21.8 (inactive)
- AC50 [2, 3]: 6.47 µM
- AC50 [2, 4]: 7.41 µM

SMILES: COc1ccc(Cn2c(-c3ccc(Cl)cc3)c[n+]3ccccc23)cc1
- activity change, negative = inhibition [1]: 21 (inactive)

SMILES: COc1ccc(-n2cc(-c3ccccc3)c3c(N4CCOCC4)ncnc32)cc1
- activity change, negative = inhibition [1]: 12.7 (inactive)
- AC50 [2, 4]: 27.8 µM

SMILES: COc1ccc2[nH]c3c(=O)n(CCCCC(=O)NCCC(C)C)c(=S)[nH]c3c2c1
- activity change, negative = inhibition [1]: 64.3 (inactive)

SMILES: C[C@@H]1CCCCO[C@H](CN(C)C(=O)CCCN(C)C)[C@H](C)CN([C@@H](C)CO)C(=O)c2cc(NC(=O)Nc3cccc4ccccc34)ccc2O1
- activity change, negative = inhibition [1]: 101 (inactive)
- AC50 [2, 4]: > 100 µM

SMILES: O=C(O)c1cc([N+](=O)[O-])ccc1NCc1ccccc1
- activity change, negative = inhibition [1]: -0.454 (inactive)
- AC50 [2, 3]: > 100 µM
- AC50 [2, 4]: 5.79 µM
